Laboratory results: PubChem BioAssay AID1963837 (Molecular Pharmacology Branch, DTP, NCI, 2024)

Test system: 843126-344-R-J1-PDC complex spheroid viability
Assay: Anticancer human tumor 843126-344-R-J1-PDC patient-derived melanoma cell line growth inhibition [POLQ]
Settings: for IC50: curve of first compound; for viability, T/C: stronger effect = lower value
Summary of the method: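 Complex spheroid viability model combining PDC tumour cells with endothelial (HUVEC) and MSC stromal cells. Novobiocin, ART-558 or RP6685 were tested singly and in combination with standard and investigational anticancer drugs. Each was titrated in half-log steps from near clinical Cmax, or from 10 microM where Cmax was unknown.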

[1] = second compound 0.0316 µM, first compound 0.00316 µM
[2] = second compound 0.0316 µM, first compound 0.01 µM
[3] = second compound 0.0316 µM, first compound 0.0316 µM
[4] = second compound 0.0316 µM, first compound 0.1 µM
[5] = second compound 0.1 µM, first compound 0.00316 µM
[6] = second compound 0.1 µM, first compound 0.01 µM
[7] = second compound 0.1 µM, first compound 0.0316 µM
[8] = second compound 0.1 µM, first compound 0.1 µM
[9] = second compound 0.316 µM, first compound 0.00316 µM
[10] = second compound 0.316 µM, first compound 0.01 µM
[11] = second compound 0.316 µM, first compound 0.0316 µM
[12] = second compound 0.316 µM, first compound 0.1 µM
[13] = second compound 1 µM, first compound 0.00316 µM
[14] = second compound 1 µM, first compound 0.01 µM
[15] = second compound 1 µM, first compound 0.0316 µM
[16] = second compound 1 µM, first compound 0.1 µM
[17] = second compound 3.16 µM, first compound 0.00316 µM
[18] = second compound 3.16 µM, first compound 0.01 µM
[19] = second compound 3.16 µM, first compound 0.0316 µM
[20] = second compound 3.16 µM, first compound 0.1 µM
[21] = second compound 10 µM, first compound 0.00316 µM
[22] = second compound 10 µM, first compound 0.01 µM
[23] = second compound 10 µM, first compound 0.0316 µM
[24] = second compound 10 µM, first compound 0.1 µM
[25] = second compound 0.0316 µM, first compound 0.316 µM
[26] = second compound 0.0316 µM, first compound 1 µM
[27] = second compound 0.1 µM, first compound 0.316 µM
[28] = second compound 0.1 µM, first compound 1 µM
[29] = second compound 0.316 µM, first compound 0.316 µM
[30] = second compound 0.316 µM, first compound 1 µM
[31] = second compound 1 µM, first compound 0.316 µM
[32] = second compound 1 µM, first compound 1 µM
[33] = second compound 3.16 µM, first compound 0.316 µM
[34] = second compound 3.16 µM, first compound 1 µM
[35] = second compound 10 µM, first compound 0.316 µM
[36] = second compound 10 µM, first compound 1 µM
[37] = second compound 0.0316 µM, first compound 3.16 µM
[38] = second compound 0.0316 µM, first compound 10 µM
[39] = second compound 0.1 µM, first compound 3.16 µM
[40] = second compound 0.1 µM, first compound 10 µM
[41] = second compound 0.316 µM, first compound 3.16 µM
[42] = second compound 0.316 µM, first compound 10 µM
[43] = second compound 1 µM, first compound 3.16 µM
[44] = second compound 1 µM, first compound 10 µM
[45] = second compound 3.16 µM, first compound 3.16 µM
[46] = second compound 3.16 µM, first compound 10 µM
[47] = second compound 10 µM, first compound 3.16 µM
[48] = second compound 10 µM, first compound 10 µM
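Wherever viability, T/C is given: spheroids exposed to drugs for seven days before readout.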

Molecule `CC[C@@]1(O)C(=O)OCc2c1cc1n(c2=O)Cc2cc3c(CN(C)C)c(O)ccc3nc2-1` + COC1C(OC(N)=O)C(O)C(Oc2ccc3c(O)c(NC(=O)c4ccc(O)c(CC=C(C)C)c4)c(=O)oc3c2C)OC1(C)C has an IC50 (second compound 0.0316 µM) of over 0.1 µM, an IC50 (second compound 0.1 µM) of 0.096 µM and an IC50 (second compound 0.316 µM) of over 0.1 µM. For the same molecule, the IC50 (second compound 1 µM) was 0.0769 µM, the IC50 (second compound 3.16 µM) was over 0.1 µM and the IC50 (second compound 10 µM) was over 0.1 µM. The viability, T/C (second compound 0.0316 µM, first compound 0.000316 µM) was 94.8%, the viability, T/C (second compound 0.0316 µM, first compound 0.001 µM) was 89.7% and the viability, T/C [1] was 104%. It also gave a viability, T/C [2] of 110%, a viability, T/C [3] of 57.3% and a viability, T/C [4] of 52.5%. It also gave a viability, T/C (second compound 0.1 µM, first compound 0.000316 µM) of 95.7%, a viability, T/C (second compound 0.1 µM, first compound 0.001 µM) of 104% and a viability, T/C [5] of 123%. It also gave a viability, T/C [6] of 91.4%, a viability, T/C [7] of 78.2% and a viability, T/C [8] of 48.7%. For the same molecule, the viability, T/C (second compound 0.316 µM, first compound 0.000316 µM) was 114%, the viability, T/C (second compound 0.316 µM, first compound 0.001 µM) was 99.2% and the viability, T/C [9] was 91.1%. For the same molecule, the viability, T/C [10] was 70.9%, the viability, T/C [11] was 91.3% and the viability, T/C [12] was 46.6%. The viability, T/C (second compound 1 µM, first compound 0.000316 µM) was 84.5%, the viability, T/C (second compound 1 µM, first compound 0.001 µM) was 83.8% and the viability, T/C [13] was 102%. The viability, T/C [14] was 82.4%, the viability, T/C [15] was 61.5% and the viability, T/C [16] was 46.6%. It also gave a viability, T/C (second compound 3.16 µM, first compound 0.000316 µM) of 92.3%, a viability, T/C (second compound 3.16 µM, first compound 0.001 µM) of 96.3% and a viability, T/C [17] of 101%. For the same molecule, the viability, T/C [18] was 91%, the viability, T/C [19] was 63.2% and the viability, T/C [20] was 54%. The viability, T/C (second compound 10 µM, first compound 0.000316 µM) was 95.5%, the viability, T/C (second compound 10 µM, first compound 0.001 µM) was 109% and the viability, T/C [21] was 110%. For the same molecule, the viability, T/C [22] was 119%, the viability, T/C [23] was 74.1% and the viability, T/C [24] was 54%.

In the case of `CCc1c2c(nc3ccc(O)cc13)-c1cc3c(c(=O)n1C2)COC(=O)[C@]3(O)CC` + COC1C(OC(N)=O)C(O)C(Oc2ccc3c(O)c(NC(=O)c4ccc(O)c(CC=C(C)C)c4)c(=O)oc3c2C)OC1(C)C, the IC50 (second compound 0.0316 µM) is reported as over 1 µM, the IC50 (second compound 0.1 µM) is reported as over 1 µM and the IC50 (second compound 0.316 µM) is reported as over 1 µM. The IC50 (second compound 1 µM) was 0.429 µM, the IC50 (second compound 3.16 µM) was 0.242 µM and the IC50 (second compound 10 µM) was 0.485 µM. The viability, T/C [1] was 63.2%, the viability, T/C [2] was 59.4% and the viability, T/C [3] was 65.9%. The viability, T/C [4] was 64.5%, the viability, T/C [25] was 63.1% and the viability, T/C [26] was 42.7%. For the same molecule, the viability, T/C [5] was 66.5%, the viability, T/C [6] was 52.1% and the viability, T/C [7] was 71.4%. It also gave a viability, T/C [8] of 69.2%, a viability, T/C [27] of 63.8% and a viability, T/C [28] of 48.6%. It also gave a viability, T/C [9] of 70.5%, a viability, T/C [10] of 59.4% and a viability, T/C [11] of 64.9%. For the same molecule, the viability, T/C [12] was 64.8%, the viability, T/C [29] was 73% and the viability, T/C [30] was 50.3%. For the same molecule, the viability, T/C [13] was 66.7%, the viability, T/C [14] was 48.2% and the viability, T/C [15] was 50.9%. For the same molecule, the viability, T/C [16] was 70.6%, the viability, T/C [31] was 48.6% and the viability, T/C [32] was 40.5%. The viability, T/C [17] was 66.9%, the viability, T/C [18] was 63.7% and the viability, T/C [19] was 73.3%. For the same molecule, the viability, T/C [20] was 57.1%, the viability, T/C [33] was 50.9% and the viability, T/C [34] was 44.8%. The viability, T/C [21] was 59.9%, the viability, T/C [22] was 62.7% and the viability, T/C [23] was 56.3%. For the same molecule, the viability, T/C [24] was 67.5%, the viability, T/C [35] was 50% and the viability, T/C [36] was 43%.

`Nc1ccn(C2OC(CO)C(O)C2(F)F)c(=O)n1` (stereo not drawn) + COC1C(OC(N)=O)C(O)C(Oc2ccc3c(O)c(NC(=O)c4ccc(O)c(CC=C(C)C)c4)c(=O)oc3c2C)OC1(C)C gave an IC50 (second compound 0.0316 µM) of under 0.0316 µM, an IC50 (second compound 0.1 µM) of under 0.0316 µM and an IC50 (second compound 0.316 µM) of under 0.0316 µM. For the same molecule, the IC50 (second compound 1 µM) was under 0.0316 µM, the IC50 (second compound 3.16 µM) was under 0.0316 µM and the IC50 (second compound 10 µM) was under 0.0316 µM. The viability, T/C [3] was 33.5%, the viability, T/C [4] was 34.9% and the viability, T/C [25] was 36.8%. The viability, T/C [26] was 36.1%, the viability, T/C [37] was 41.7% and the viability, T/C [38] was 34.7%. It also gave a viability, T/C [7] of 41.3%, a viability, T/C [8] of 36.5% and a viability, T/C [27] of 34.9%. For the same molecule, the viability, T/C [28] was 37.8%, the viability, T/C [39] was 37.3% and the viability, T/C [40] was 33.7%. It also gave a viability, T/C [11] of 38.6%, a viability, T/C [12] of 36.4% and a viability, T/C [29] of 39.4%. For the same molecule, the viability, T/C [30] was 32.9%, the viability, T/C [41] was 36.9% and the viability, T/C [42] was 33.4%. For the same molecule, the viability, T/C [15] was 38.9%, the viability, T/C [16] was 36% and the viability, T/C [31] was 39.3%. For the same molecule, the viability, T/C [32] was 31.7%, the viability, T/C [43] was 40% and the viability, T/C [44] was 35.7%. The viability, T/C [19] was 43.5%, the viability, T/C [20] was 34.6% and the viability, T/C [33] was 38%. For the same molecule, the viability, T/C [34] was 30.8%, the viability, T/C [45] was 39.5% and the viability, T/C [46] was 31.2%. The viability, T/C [23] was 38.4%, the viability, T/C [24] was 37.8% and the viability, T/C [35] was 38%. For the same molecule, the viability, T/C [36] was 32.8%, the viability, T/C [47] was 32% and the viability, T/C [48] was 32%.

Work on `O=c1[nH]cc(F)c(=O)[nH]1` + COC1C(OC(N)=O)C(O)C(Oc2ccc3c(O)c(NC(=O)c4ccc(O)c(CC=C(C)C)c4)c(=O)oc3c2C)OC1(C)C yielded an IC50 (second compound 0.0316 µM) of over 10 µM, an IC50 (second compound 0.1 µM) of over 10 µM and an IC50 (second compound 0.316 µM) of over 10 µM. It also gave an IC50 (second compound 1 µM) of over 10 µM, an IC50 (second compound 3.16 µM) of over 10 µM and an IC50 (second compound 10 µM) of over 10 µM. For the same molecule, the viability, T/C [3] was 97.9%, the viability, T/C [4] was 76.6% and the viability, T/C [25] was 91.9%. For the same molecule, the viability, T/C [26] was 102%, the viability, T/C [37] was 99.3% and the viability, T/C [38] was 87.7%. The viability, T/C [7] was 99.2%, the viability, T/C [8] was 99% and the viability, T/C [27] was 102%. For the same molecule, the viability, T/C [28] was 84.2%, the viability, T/C [39] was 82.7% and the viability, T/C [40] was 73.3%. It also gave a viability, T/C [11] of 92.4%, a viability, T/C [12] of 116% and a viability, T/C [29] of 89.5%. For the same molecule, the viability, T/C [30] was 81.7%, the viability, T/C [41] was 75.3% and the viability, T/C [42] was 70.4%. It also gave a viability, T/C [15] of 76.6%, a viability, T/C [16] of 85.4% and a viability, T/C [31] of 80.3%. It also gave a viability, T/C [32] of 90.2%, a viability, T/C [43] of 92.8% and a viability, T/C [44] of 64.3%. The viability, T/C [19] was 94.2%, the viability, T/C [20] was 94.3% and the viability, T/C [33] was 89.7%. For the same molecule, the viability, T/C [34] was 103%, the viability, T/C [45] was 75.2% and the viability, T/C [46] was 70.4%. The viability, T/C [23] was 78.8%, the viability, T/C [24] was 88.1% and the viability, T/C [35] was 93%. It also gave a viability, T/C [36] of 80.6%, a viability, T/C [47] of 94.3% and a viability, T/C [48] of 71.5%.
